Data from the supplement of paper PMC10307832.

Tests used:
Experiment in all cases: relative viability (nuclei count vs DMSO), 5 days (fraction); higher = more cells survive
Axitinib + Luminespib = compound: CNC(=O)c1ccccc1Sc1ccc2c(/C=C/c3ccccn3)n[nH]c2c1 [Axitinib] + CCNC(=O)c1noc(-c2cc(C(C)C)c(O)cc2O)c1-c1ccc(CN2CCOCC2)cc1 [Luminespib] (partner 0.01 µM)
How it was run: (§1)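 A single step with final 0.05% Triton X-100, 1% formaldehyde and 1 ug/ml Hoechst fixed the cells and stained nuclei 5 days after treatment. Lung cancer cell lines in 1536-well plates had been treated by pin tool the day after seeding with one drug alone or a fixed anchor-drug dose plus five library-drug doses (not always all listed) in √10 steps, and nuclei were counted on 4× images. Relative viability is the ratio of nuclei in treated wells to nuclei in vehicle wells, taken as the median of duplicate plates.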

Bemcentinib + Luminespib = compound: Nc1nc(Nc2ccc3c(c2)CC[C@@H](N2CCCC2)CC3)nn1-c1cc2c(nn1)-c1ccccc1CCC2 [Bemcentinib] + CCNC(=O)c1noc(-c2cc(C(C)C)c(O)cc2O)c1-c1ccc(CN2CCOCC2)cc1 [Luminespib] (partner 0.01 µM)
How it was run: as §1

Bemcentinib + Crizotinib = compound: Nc1nc(Nc2ccc3c(c2)CC[C@@H](N2CCCC2)CC3)nn1-c1cc2c(nn1)-c1ccccc1CCC2 [Bemcentinib] + C[C@@H](Oc1cc(-c2cnn(C3CCNCC3)c2)cnc1N)c1c(Cl)ccc(F)c1Cl [Crizotinib] (partner 1 µM)
How it was run: as §1

Bemcentinib + Phenformin = compound: Nc1nc(Nc2ccc3c(c2)CC[C@@H](N2CCCC2)CC3)nn1-c1cc2c(nn1)-c1ccccc1CCC2 [Bemcentinib] + N=C(N)NC(=N)NCCc1ccccc1 [Phenformin] (partner 250 µM)
How it was run: as §1

Row | Cell Line | relative viability (Axitinib + Luminespib; first compound 0.005 µM) | relative viability (Axitinib + Luminespib; first compound 0.01581 µM) | relative viability (Axitinib + Luminespib; first compound 0.05 µM) | relative viability (Axitinib + Luminespib; first compound 0.1581 µM) | relative viability (Axitinib + Luminespib; first compound 0.5 µM) | relative viability (Bemcentinib + Luminespib; first compound 0.04 µM) | relative viability (Bemcentinib + Luminespib; first compound 0.1265 µM) | relative viability (Bemcentinib + Luminespib; first compound 0.4 µM) | relative viability (Bemcentinib + Luminespib; first compound 1.265 µM) | relative viability (Bemcentinib + Luminespib; first compound 4 µM) | relative viability (Bemcentinib + Crizotinib; first compound 0.04 µM) | relative viability (Bemcentinib + Crizotinib; first compound 0.1265 µM) | relative viability (Bemcentinib + Crizotinib; first compound 0.4 µM) | relative viability (Bemcentinib + Crizotinib; first compound 1.265 µM) | relative viability (Bemcentinib + Crizotinib; first compound 4 µM) | relative viability (Bemcentinib + Phenformin; first compound 0.04 µM) | relative viability (Bemcentinib + Phenformin; first compound 0.1265 µM) | relative viability (Bemcentinib + Phenformin; first compound 0.4 µM) | relative viability (Bemcentinib + Phenformin; first compound 1.265 µM) | relative viability (Bemcentinib + Phenformin; first compound 4 µM)
1 | NCI-H838 | 0.247 | 0.33 | 0.334 | 0.24 | 0.246 | 0.256 | 0.278 | 0.357 | 0.282 | 0.262 | 0.805 | 0.958 | 0.906 | 0.893 | 0.869 | 0.544 | 0.493 | 0.561 | 0.659 | 0.566
2 | COR-L 105 | 0.628 | 0.922 | 0.669 | 0.64 | 0.81 | 0.741 | 0.839 | 0.893 | 0.704 | 0.783 | 0.638 | 0.843 | 0.969 | 0.641 | 0.621 | 0.529 | 0.432 | 0.561 | 0.494 | 0.45
3 | NCI-H358 | 0.478 | 0.364 | 0.436 | 0.338 | 0.325 | 0.319 | 0.335 | 0.303 | 0.247 | 0.369 | 0.587 | 0.506 | 0.511 | 0.54 | 0.53 | 0.321 | 0.348 | 0.325 | 0.355 | 0.39
4 | SK-MES-1 | 0.774 | 0.781 | 0.746 | 0.766 | 0.825 | 0.456 | 0.742 | 0.786 | 0.761 | 1.07 | 1.03 | 0.955 | 0.998 | 1.14 | 1.06 | 0.687 | 0.691 | 0.652 | 0.758 | 0.667
5 | LCLC-103H | 0.988 | 0.917 | 0.978 | 0.924 | 0.994 | 1.06 | 1.15 | 0.94 | 1.11 | 0.899 | 1.05 | 1.11 | 1.04 | 1.13 | 1.11 | 0.366 | 0.255 | 0.332 | 0.289 | 0.35
6 | HARA | 0.791 | 0.823 | 0.901 | 0.721 | 0.639 | 0.603 | 0.983 | 0.719 | 1.03 | 0.597 | 1.02 | 1.28 | 1.22 | 1.08 | 1.03 | 0.41 | 0.541 | 0.539 | 0.434 | 0.498
7 | ABC-1 | 0.777 | 0.727 | 0.444 | – | 0.552 | 0.456 | 0.682 | 0.801 | 1.02 | 0.741 | 1.06 | 1.26 | 0.934 | 0.95 | 1.02 | 0.191 | 0.267 | 0.23 | 0.253 | 0.239
8 | NCI-H727 | 0.325 | 0.276 | 0.345 | 0.346 | 0.278 | 0.352 | 0.383 | 0.268 | 0.29 | 0.303 | 0.666 | 1.08 | 0.743 | 0.801 | 0.817 | 0.626 | 0.709 | 0.493 | 0.363 | 0.671
